Source: US4753953A, “Pyridonecarboxylic acid derivatives and antibacterial pharmaceutical compositions thereof” (priority 1985, dated 1988)
Values after ≈ are worked out from the molar mass of the structure shown.

Key:
[1] = system: Bacillus subtilis PCI 219; assay: MIC, in vitro antibacterial activity (standard strains); type: cell-based; conditions: Bacillus subtilis, PCI219; 10^6 cells/ml; Gram +; read-out: MIC
[2] = system: Staphylococcus aureus 209 P; assay: as above; type: cell-based; conditions: Staphylococcus aureus, 209P; 10^6 cells/ml; Gram +; read-out: MIC
S. aureus Smith = assay: as above; type: cell-based, Staphylococcus aureus; conditions: Staphylococcus aureus; 10^6 cells/ml; Gram +; read-out: MIC
[3] = system: S. aureus IID 670 (Terajima); assay: as above; type: cell-based, Staphylococcus aureus; conditions: Staphylococcus aureus, IID670; 10^6 cells/ml; Gram +; read-out: MIC
S. pyogenes IID 692 = assay: as above; type: cell-based, Streptococcus pyogenes; conditions: Streptococcus pyogenes, IID692; 10^6 cells/ml; Gram +; read-out: MIC
S. pneumoniae IID 552 = assay: as above; type: cell-based; conditions: Streptococcus pneumoniae, IID552; 10^6 cells/ml; Gram +; read-out: MIC
E. faecalis IID 682 = assay: as above; type: cell-based; conditions: Enterococcus faecalis, IID682; 10^6 cells/ml; Gram +; read-out: MIC
E. coli ATCC 10536 = assay: as above; type: cell-based, Escherichia coli; conditions: Escherichia coli, ATCC10536; 10^6 cells/ml; Gram -; read-out: MIC
[4] = system: Proteus vulgaris IFO 3167; assay: as above; type: cell-based; conditions: Proteus vulgaris, IFO3167; 10^6 cells/ml; Gram -; read-out: MIC
P. mirabilis IID 994 = assay: as above; type: cell-based; conditions: Proteus mirabilis, IID994; 10^6 cells/ml; Gram -; read-out: MIC
[5] = system: Morganella morganii IID 602; assay: as above; type: cell-based; conditions: Morganella morganii, IID602; 10^6 cells/ml; Gram -; read-out: MIC
[6] = system: Klebsiella pneumoniae KY(GN)6445; assay: as above; type: cell-based; conditions: Klebsiella pneumoniae; 10^6 cells/ml; Gram -; read-out: MIC
K. pneumoniae 1-220S = assay: as above; type: cell-based, Klebsiella pneumoniae; conditions: Klebsiella pneumoniae, 1220S; 10^6 cells/ml; Gram -; read-out: MIC
[7] = system: Serratia marcescens IID 618; assay: as above; type: cell-based; conditions: Serratia marcescens, IID618; 10^6 cells/ml; Gram -; read-out: MIC
[8] = system: Salmonella enteritidis IID 604; assay: as above; type: cell-based; conditions: Salmonella enterica; 10^6 cells/ml; Gram -; read-out: MIC
P. aeruginosa IFO 12689 = assay: as above; type: cell-based, Pseudomonas aeruginosa; conditions: Pseudomonas aeruginosa, IFO12689; 10^6 cells/ml; Gram -; read-out: MIC
P. aeruginosa IID 1210 = assay: as above; type: cell-based, Pseudomonas aeruginosa; conditions: Pseudomonas aeruginosa, IID1210; 10^6 cells/ml; Gram -; read-out: MIC
P. cepacia GIFU 518 = assay: as above; type: cell-based; conditions: Burkholderia cepacia, GIFU518; 10^6 cells/ml; Gram -; read-out: MIC
[9] = system: Alcaligenes faecalis 0114002; assay: as above; type: cell-based; conditions: Alcaligenes faecalis, 0114002; 10^6 cells/ml; Gram -; read-out: MIC
[10] = system: Bacteroides fragilis GM 7000; assay: as above; type: cell-based; conditions: Bacteroides fragilis, GM7000; 10^6 cells/ml; Gram -; read-out: MIC
B. fragilis 0558 = assay: as above; type: cell-based, Bacteroides fragilis; conditions: Bacteroides fragilis, 0558; 10^6 cells/ml; Gram -; read-out: MIC
[11] = system: B. thetaiotaomicron (0661); assay: as above; type: cell-based; conditions: Bacteroides thetaiotaomicron; 10^6 cells/ml; Gram -; read-out: MIC
B. vulgatus KYA 29327 = assay: as above; type: cell-based; conditions: Phocaeicola vulgatus, KYA29327; 10^6 cells/ml; Gram -; read-out: MIC
F. necrophorum S-45 = assay: as above; type: cell-based; conditions: Fusobacterium necrophorum, S45; 10^6 cells/ml; Gram -; read-out: MIC
[12] = system: Eubacterium lentum GAI 5242; assay: as above; type: cell-based; conditions: Eggerthella lenta, GAI5242; 10^6 cells/ml; Gram +; read-out: MIC
E. limosum KYA 8486 = assay: as above; type: cell-based; conditions: Eubacterium limosum, KYA8486; 10^6 cells/ml; Gram +; read-out: MIC
[13] = system: Clostridium difficile I-E; assay: as above; type: cell-based; conditions: Clostridioides difficile; 10^6 cells/ml; Gram +
C. perfringens KYA 13123 = assay: microbe, parasite or virus in culture; type: cell-based; conditions: Clostridium perfringens, KYA13123
C. ramosum = assay: MIC, in vitro antibacterial activity (standard strains); type: cell-based; conditions: Thomasclavelia ramosa; 10^6 cells/ml; Gram +; read-out: MIC
[14] = system: Peptostreptococcus anaerobius KYA 27337; assay: as above; type: cell-based; conditions: Peptostreptococcus anaerobius, KYA27337; 10^6 cells/ml; Gram +; read-out: MIC
Pst. micros UPI 5464-1 = assay: as above; type: cell-based; conditions: Parvimonas micra, UPI54641; 10^6 cells/ml; Gram +; read-out: MIC
[15] = system: Veillonella parvula KYA 10790; assay: as above; type: cell-based; conditions: Veillonella parvula, KYA10790; 10^6 cells/ml; Gram -; read-out: MIC
B. distasonis 8503 = assay: as above; type: cell-based; conditions: Parabacteroides distasonis, 8503; 10^6 cells/ml; Gram -; read-out: MIC

Row | SMILES | MIC [1] [µg/mL] | MIC [2] [µg/mL] | MIC (S. aureus Smith) [µg/mL] | MIC [3] [µg/mL] | MIC (S. pyogenes IID 692) [µg/mL] | MIC (S. pneumoniae IID 552) [µg/mL] | MIC (E. faecalis IID 682) [µg/mL] | MIC (E. coli ATCC 10536) [µg/mL] | MIC [4] [µg/mL] | MIC (P. mirabilis IID 994) [µg/mL] | MIC [5] [µg/mL] | MIC [6] [µg/mL] | MIC (K. pneumoniae 1-220S) [µg/mL] | MIC [7] [µg/mL] | MIC [8] [µg/mL] | MIC (P. aeruginosa IFO 12689) [µg/mL] | MIC (P. aeruginosa IID 1210) [µg/mL] | MIC [9] [µg/mL] | MIC [10] [µg/mL] | MIC (B. fragilis 0558) [µg/mL] | other results
1 | C[C@H]1CN(c2c(F)cc3c(=O)c(C(=O)O)cn4c3c2OC[C@@H]4C)C[C@H]1N.Cl (mixture of isomers) [Example 31, (3S)-10-(cis-3-Amino-4-methyl-1-pyrrolidinyl)-9-fluoro-2,3-dihydro-3-methyl-7-oxo-7H-pyrido[1,2,3-de][1,4]benzoxazine-6-carboxylic acid hydrochloride] | 0.05 | 0.2 | 0.2 | 0.2 | 0.2 | 0.2 | 0.2 | 0.025 | 0.1 | 0.1 | 0.2 | 0.05 | 0.1 | 0.1 | 0.1 | 0.78 | 3.13 | 0.39 | 1.56 | 0.78 | MIC (P. cepacia GIFU 518): 1.56 µg/mL; MIC [11]: 3.13 µg/mL; MIC (B. vulgatus KYA 29327): 3.13 µg/mL; MIC (F. necrophorum S-45): 0.39 µg/mL; MIC [12]: 0.39 µg/mL; MIC (E. limosum KYA 8486): 3.13 µg/mL; MIC [13]: 3.13 µg/mL; MIC (C. perfringens KYA 13123): 0.2 µg/mL; MIC (C. ramosum): 6.25 µg/mL; MIC [14]: 0.39 µg/mL; MIC (Pst. micros UPI 5464-1): 0.2 µg/mL; MIC [15]: 0.2 µg/mL
2 | CC1COc2c(N3C[C@@H](N)[C@@H](C)C3)c(F)cc3c(=O)c(C(=O)O)cn1c23.Cl (relative stereo) [Example 29, 10-(cis-3-Amino-4-methyl-1-pyrrolidinyl)-9-fluoro-2,3-dihydro-3-methyl-7-oxo-7H-pyrido[1,2,3-de][1,4]benzoxazine-6-carboxylic acid hydrochloride] | 0.05 | 0.2 | 0.2 | 0.39 | 0.39 | 0.39 | 0.39 | 0.05 | 0.05 | 0.1 | 0.2 | 0.05 | 0.2 | 0.1 | 0.1 | 1.56 | 6.25 | 1.56 | 3.13 | 1.56 | MIC (P. cepacia GIFU 518): 1.56 µg/mL; MIC [11]: 6.25 µg/mL; MIC (B. vulgatus KYA 29327): 6.25 µg/mL; MIC (F. necrophorum S-45): 0.78 µg/mL; MIC [12]: 0.78 µg/mL; MIC (E. limosum KYA 8486): 6.25 µg/mL; MIC [13]: 6.25 µg/mL; MIC (C. perfringens KYA 13123): 0.39 µg/mL; MIC (C. ramosum): 12.5 µg/mL; MIC [14]: 1.56 µg/mL; MIC (Pst. micros UPI 5464-1): 0.39 µg/mL; MIC [15]: 0.39 µg/mL
3 | C[C@@H]1CN(c2c(F)cc3c(=O)c(C(=O)O)cn(C4CC4)c3c2Br)C[C@H]1N (relative stereo) [Example 32, 7-(trans-3-Amino-4-methyl-1-pyrrolidinyl)-8-bromo-1-cyclopropyl-6-fluoro-1,4-dihydro-4-oxo-3-quinolinecarboxylic acid] | 0.0125 (≈ 0.0295 µM) | 0.025 (≈ 0.0589 µM) | 0.025 (≈ 0.0589 µM) | 0.05 (≈ 0.118 µM) | 0.2 (≈ 0.471 µM) | 0.1 (≈ 0.236 µM) | 0.2 (≈ 0.471 µM) | 0.0125 (≈ 0.0295 µM) | 0.0125 (≈ 0.0295 µM) | 0.05 (≈ 0.118 µM) | 0.05 (≈ 0.118 µM) | 0.025 (≈ 0.0589 µM) | 0.05 (≈ 0.118 µM) | 0.05 (≈ 0.118 µM) | 0.05 (≈ 0.118 µM) | 0.39 (≈ 0.919 µM) | 0.78 (≈ 1.84 µM) | 0.1 (≈ 0.236 µM) | 0.1 (≈ 0.236 µM) | 0.05 (≈ 0.118 µM) | MIC (B. distasonis 8503): 0.2 µg/mL (≈ 0.471 µM); MIC [11]: 0.2 µg/mL (≈ 0.471 µM); MIC (B. vulgatus KYA 29327): 0.1 µg/mL (≈ 0.236 µM); MIC (F. necrophorum S-45): 0.1 µg/mL (≈ 0.236 µM); MIC [12]: 0.1 µg/mL (≈ 0.236 µM); MIC (E. limosum KYA 8486): 0.1 µg/mL (≈ 0.236 µM); MIC [13]: 0.78 µg/mL; MIC (C. perfringens KYA 13123): 0.2 µg/mL (≈ 0.471 µM); MIC (C. ramosum): 0.78 µg/mL (≈ 1.84 µM); MIC [14]: 0.2 µg/mL (≈ 0.471 µM); MIC (Pst. micros UPI 5464-1): 0.1 µg/mL (≈ 0.236 µM); MIC [15]: 0.1 µg/mL (≈ 0.236 µM)
4 | C[C@H]1CN(c2cc3c(cc2F)c(=O)c(C(=O)O)cn3C2CC2)C[C@H]1N (relative stereo) [Example 33, 7-(cis-3-Amino-4-methyl-1-pyrrolidinyl)-1-cyclopropyl-6-fluoro-1,4-dihydro-4-oxo-3-quinolinecarboxylic acid] | 0.05 (≈ 0.145 µM) | 0.05 (≈ 0.145 µM) | 0.1 (≈ 0.29 µM) | 0.1 (≈ 0.29 µM) | 0.39 (≈ 1.13 µM) | 0.39 (≈ 1.13 µM) | 0.39 (≈ 1.13 µM) | 0.05 (≈ 0.145 µM) | 0.05 (≈ 0.145 µM) | 0.05 (≈ 0.145 µM) | 0.05 (≈ 0.145 µM) | 0.05 (≈ 0.145 µM) | 0.05 (≈ 0.145 µM) | 0.05 (≈ 0.145 µM) | 0.05 (≈ 0.145 µM) | 0.39 (≈ 1.13 µM) | 1.56 (≈ 4.52 µM) | 0.2 (≈ 0.579 µM) | 1.56 (≈ 4.52 µM) | 1.56 (≈ 4.52 µM) | MIC (B. distasonis 8503): 6.25 µg/mL (≈ 18.1 µM); MIC [11]: 6.25 µg/mL (≈ 18.1 µM); MIC (B. vulgatus KYA 29327): 6.25 µg/mL (≈ 18.1 µM); MIC (F. necrophorum S-45): 1.56 µg/mL (≈ 4.52 µM); MIC [12]: 0.78 µg/mL (≈ 2.26 µM); MIC (E. limosum KYA 8486): 0.2 µg/mL (≈ 0.579 µM); MIC [13]: 6.25 µg/mL; MIC (C. perfringens KYA 13123): 0.78 µg/mL (≈ 2.26 µM); MIC (C. ramosum): 6.25 µg/mL (≈ 18.1 µM); MIC [14]: 1.56 µg/mL (≈ 4.52 µM); MIC (Pst. micros UPI 5464-1): 0.39 µg/mL (≈ 1.13 µM); MIC [15]: 0.39 µg/mL (≈ 1.13 µM)
